Laboratory results as given in patent publication US11135228B2, “Cysteinyl-proresolving mediators that promote resolution of infection and organ protection” (THE BRIGHAM AND WOMEN'S HOSPITAL, priority 2014, dated 2021).

What was measured:
γ-glutamyl transferase [1] = assay: SCI and SCII levels in regenerating planaria with γ-glutamyl transferase inhibitor; format: in vivo, Dugesia japonica; conditions: Acivicin 2.5 mM
γ-glutamyl transferase [2] = assay: Sulfido-conjugate levels in activated human macrophages with γ-glutamyl transferase inhibitor; format: cell-based; conditions: Acivicin 2.5 mM
Description: Human macrophages (3×10^7 cells/ml) were incubated with DHA (1 μg, 37° C., PBS, pH 7.45) and E. coli (1.5×10^8 […]). Incubations were stopped with 2 volumes ice-cold methanol, products were extracted and levels assessed by LC-MS-MS. In select experiments, macrophages were incubated with Acivicin (2.5 mM, 37° C. PBS, pH 7.45) prior to addition of DHA (1 μg) and. Acivicin (2.5 mM) and products assessed by LC-MS-MS.
In select experiments, human macrophages (˜4.5×10^7 cells/ml) were incubated with DHA (10.5 μM) or 17-HpD [10 μM at 37° C. (pH 7.45)] and E. coli (1:50) for 30 min at 37° C. Incubations were stopped with 2 volumes of ice-cold methanol, products were extracted, and levels assessed by LC-MS-MS. Macrophages were also incubated with or without Acivicin [2.5 mM at 37° C., PBS (pH 7.45)], a γ-glutamyl transferase (GGT) agent that inhibits LT D4 formation (16), before addition of 17-HpD (10 μM) and E. coli (1:50; 60 min), and products were taken to […].

Human macrophages [3] = assay: Human macrophage efferocytosis of apoptotic PMN; format: cell-based; conditions: 17-series sulfido-conjugates 0.1-10 nM; apoptotic PMNs 40 min
Description: (§1) Leukocyte phagocytosis: Macrophages were prepared from peripheral blood mononuclear cells (PBMC) purchased from Children's Hospital Blood Bank, Boston, and phagocytosis was assessed as in (11). Briefly, macrophages (5×10^4 cells,/well) were incubated with SCI (10 pM-100 nM), SCII (10 pM-100 nM), MaR1 (10 pM-100 nM), or vehicle (0.1% EtOH in DPBS) for 15 min at 37° C., then fluorescent labeled apoptotic cells were added and cells incubated 45 min at 37° C. Extracellular fluorescence was quenched using Trypan blue (1:15 dilution) and phagocytosis assessed using an M3 SpectraMax plate reader. In select experiments, macrophages (5×10^4 cells/well) or neutrophils (1×10^5 cells/well) were obtained from human healthy volunteers' peripheral blood as in (11) in accordance with Partners Human Research Committee Protocol (#1999P001297), and incubated with H2DCFDA (5 μM, 30 min, 37° C.), then with SCI (10 pM-100 nM), SCI (10 pM-100 nM) or vehicle (0.1% EtOH in DPBS, 15 min, 37° C.) and E. coli (1:50 leukocytes to E. coli, 45 min, 37° C.) Intracellular reactive oxygen species were determined by measuring fluorescence using an M3 SpectraMax plate reader. To assess bacterial phagocytosis, macrophages (5×10^4 cells/well) or neutrophils (1×10^5 cells/well) were incubated with SCI (10 pM-100 nM), SCII (10 pM-100 nM) or vehicle (0.1% EtOH in DPBS, 15 min, 37° C.), then incubated with BacLight Green (Molecular Probes) labeled E. coli (1:50 leukocytes to E. coli, 45 min, 37° C.), Extracellular fluorescence was quenched using Trypan blue (1:15 dilution), and phagocytosis assessed using an M3 SpectraMax plate reader.
In determined experiments, human macrophages were incubated with SC isolates from regenerating planaria for 15 min at 37° C., then fluorescent labeled apoptotic cells were added and efferocytosis was assessed as detailed above.
Macrophage bacterial phagocytosis, efferocytosis, and phagolysosontal acidification: Human macrophages were plated in 96-well plates (5×10^4 cells per well) for 24 h, and phagocytosis or efferocytosis was assessed as in (14). In brief, apoptotic PMNs were obtained by culturing cells overnight in PBS^−/− (5×10^6 cells/ml). Apoptotic human PMNs were labeled with bisbenzimide H33342 trihydrochloride (Sigma-Aldrich). Human macrophages were incubated with 0.1-10 nM concentration of test products, and then labeled apoptotic PMNs were cocultured with macrophages for 40 min [37° C. […]]. Fluorescence was read on a SpectraMax M3 plate reader (Molecular Devices, Sunnyvale, Calif., USA), and results were analyzed using SoftMax Pro (Molecular Devices).

Human macrophages [4] = assay: Macrophage phagolysosomal acidification (pHrodo dye); format: cell-based; conditions: in the presence of bacteria, 60 min
Description: Macrophage phagolysosomal acidification was assessed by incubating macrophages with pHrodo dye (Invitrogen) following the manufacturer's instructions. Subsequently, cells were incubated with 1 nM of test compounds (15 min at 37° C.), E. coli (2.5×10^6 CFU/well) were added, and fluorescence was assessed after 60 min (37° C.) using a BZ9000 microscope equipped with a ×20 objective (Keyence, Itasca, Ill., USA) and a fluorescence plate reader.

Human macrophages [5] = assay: Human macrophage phagocytosis of fluorescently labeled E. coli; format: cell-based; conditions: 17-series sulfido-conjugates 0.1-10 nM, 15 min; bacteria 40 min
Description: as §1
Macrophage phagocytosis was assessed using fluorescently labeled E. coli (serotype O6:K2;H1) with BacLight Green Bacterial Stain (Life Technologies, Eugene, Oreg., USA). E. coli [2.5×10^6 colony-forming units (CFL)/well] were then added to macrophages previously plated in 96-well plates (40 min at 37° C.) and incubated with 0.1-10 nM concentration of test compounds [15 min at 37° C. (pH 7.45)]. Fluorescence was measured on a SpectraMax M3 plate reader, and results were analyzed using SoftMax Pro.

[6] = test system: Mice (hind-limb ischemia/reperfusion); assay: Hind-limb ischemia reperfusion, second organ reflow injury; format: in vivo, mouse; conditions: SCI plus SCII 50 ng each or RvD1 500 ng i.v.
Description: Ischemia Reperfusion: Mice were anesthetized by intraperitoneal (i.p.) injection of […]. To initiate hind-limb ischemia, tourniquets consisting of a rubber band were placed on each hind limb. Ten min prior to the initiation of reperfusion, Vehicle (saline containing 0.1% EtOH), SCI (50 ng) plus SCII (50 ng) or Resolvin D1 (500 ng) were administered by intravenous injection. At the end of reperfusion (3 h), mice were euthanized, blood collected via cardiac puncture and plasma isolated for lipid mediator metabololipidomics. Lungs were harvested, left lungs were frozen in liquid nitrogen and stored at −80° C. Right lungs were stored in 10% (v/v) buffered formalin and processed for histology and hematoxylin and eosin (H&E) staining by the Children's Hospital Boston Core Histology Facility, imaged using a Keyence BZ-9000 microscope and BZ II imaging software (Keyence) Expression of Ki67 and Roof plate-specific Spondin-3 (RSPO3) were assessed by immunofluorescence staining. Briefly, sections were deparafinized in xylene and rehydrated, then blocked in 10% horse serum and stained with either rat anti-mouse RSPON3 antibody (R&D Systems) for 1 h at room temperature and then with sheep anti-rat Alexa-594 conjugated antibody (BioLegend), or with rabbit anti-mouse antibody (Abeam) and then with donkey anti-rabbit Alexa-488 antibody (BioLegend). Slides were mounted in Vector Shield mounting solution with DAPI (Vector Labs) and immunofluorescence assessed using a Zeiss LSM 510 Meta confocal microscope. Images were processed using ImageJ software (National Institutes of Health) and Adobe Photoshop CS6 (Adobe Systems incorporated) software. Frozen lungs were gently dispersed, centrifuged, and tissue myeloperoxidase (MPO) levels were determined using mouse MPO ELISA (R&D Systems).

SMILES	human macrophage efferocytosis (uptake of apoptotic human PMNs) (Human macrophages [3])	macrophage phagolysosomal acidification (Human macrophages [4])	human macrophage phagocytosis of E. coli (Human macrophages [5])	further results
N[C@H](C(=O)O)[C@@H]1CC(Cl)=NO1 [Acivicin]				SCI level in regenerating planaria (γ-glutamyl transferase [1]): increased; SCII levels in regenerating planaria (γ-glutamyl transferase [1]): decreased; 8-cysteinyl, 7,17-dihydroxy-docosahexaenoic acid (RCTR3) levels (γ-glutamyl transferase [2]; E. coli): decrease; 8-glutathionyl, 7,17-dihydroxy-docosahexaenoic acid (RCTR1) levels (γ-glutamyl transferase [2]; E. coli): statistically significant increase; 16-cysteinyl, 17-hydroxy-docosahexaenoic acid (PCTR3) levels (γ-glutamyl transferase [2]; E. coli): decrease; 16-glutathionyl, 17-hydroxy-docosahexaenoic acid (PCTR1) levels (γ-glutamyl transferase [2]; E. coli): increase; SCI levels (γ-glutamyl transferase [2]; then DHA and E. coli): significant increase; SCII levels (γ-glutamyl transferase [2]; then DHA and E. coli): reduction
CC/C=C\CC(O)C(/C=C/C=C/C=C\C/C=C\C/C=C\CCC(=O)O)SCC(NC(=O)CCC(N)C(=O)O)C(=O)NCC(=O)O (stereo not shown) [PCTR1, 16-glutathionyl, 17-hydroxy-4Z,7Z,10,12,14,19Z-docosahexaenoic acid]	dose-dependent increase	dose-dependent increase	dose-dependent increase	
CC/C=C\C[C@H](O)[C@@H](/C=C/C=C/C=C\C/C=C\C/C=C\CCC(=O)O)SC[C@H](N)C(=O)NCC(=O)O [PCTR2, 16-cysteinylglycinyl, 17-hydroxy-4Z,7Z,10,12,14,19Z-docosahexaenoic acid]	dose-dependent increase	dose-dependent increase	dose-dependent increase	
CC/C=C\C[C@H](O)[C@@H](/C=C/C=C/C=C\C/C=C\C/C=C\CCC(=O)O)SC[C@H](N)C(=O)O [PCTR3, 16-cysteinyl, 17-hydroxy-4Z,7Z,10,12,14,19Z-docosahexaenoic acid]	dose-dependent increase	dose-dependent increase	dose-dependent increase	
CC/C=C\C[C@H](O)\C=C/C=C/C=C/[C@H](O)C/C=C\C/C=C\CCC(=O)O [PD1, 10R,17S-dihydroxy-docosa-4Z,7Z,11E,13E,15Z,19Z-hexaenoic acid, reference compound]			comparable	
CC/C=C\C[C@H](O)/C=C/C=C\C=C\C=C\[C@@H](SC[C@H](NC(=O)CC[C@H](N)C(=O)O)C(=O)NCC(=O)O)[C@@H](O)C/C=C\CCC(=O)O [RCTR1, 8-glutathionyl, 7,17-hydroxy-4Z,9,11,13Z,15E,19Z-docosahexaenoic acid]	dose-dependent increase	dose-dependent increase	dose-dependent increase	
CC/C=C\C[C@H](O)/C=C/C=C\C=C\C=C\[C@@H](SC[C@H](N)C(=O)NCC(=O)O)[C@@H](O)C/C=C\CCC(=O)O [RCTR2, 8-cysteinylglycinyl, 7,17-hydroxy-4Z,9,11,13Z,15E,19Z-docosahexaenoic acid]	dose-dependent increase	dose-dependent increase	dose-dependent increase	
CC/C=C\C[C@H](O)/C=C/C=C\C=C\C=C\[C@@H](O)[C@@H](O)C/C=C\CCC(=O)O [RvD1, 7S,8R,17S-trihydroxy-docosa-4Z,9E,11E,13Z,15E,19Z-hexaenoic acid, reference compound]				leukocyte infiltration/migration into lungs and spleens (MPO) [6]: comparable
